Results as given in patent publication US20120077803A1, “Uses Of NK Receptor Antagonists” (NOVARTIS AG, priority 2009, published 2012).

What was measured:
[1] = system: dogs with flea allergic dermatitis; test: Pruritus intensity by Actical activity monitors in flea allergic dogs; assay type: in vivo, Beagle dogs; conditions: for Actical day, mean (standard deviation): 6am-6pm; for Actical night, mean (standard deviation): 6pm-6am
Procedure: (§1) Flea-allergic laboratory Beagle dogs are infested with fleas. Fifty (50) Ctenocephalides felis fleas, 18 to 20 days old are released on the back of every dog on D1. Dogs are combed 48 hours (D3) after infestation to reduce the number of fleas (reduction of allergen charge).
Pruritus intensity: Pruritus intensity is evaluated using activity monitors (Actical™: Actiwatch™; Cambridge Neuorotechnology Ltd, Papworth Everard, UK) according to Nuttall and McEwan. (Nuttal T and McEwan N, “Objective measurement of pruritus in dogs: a preliminary study using activity monitors”. ESVD, 2006, 17 348-351). The physical activity monitors, mounted on collars, are placed around the dog's neck and tightened to the extent that they more with the skin but not so that they compress the underlying tissues. They were put on the dogs on D −5. […] This typically allows to see the difference in activity when the dogs have fleas and are developing pruritic and inflammatory lesions (i.e. dermatitis) and then again their activity during treatment with either the Test Compound or Prednisolone. The activity monitors are typically removed at the end of each phase on D12. Activity monitors measure the movement average within 15 seconds,
(§2) Skin lesions are allowed to develop until the total lesion score reaches ˜20. The Test Compound is then given orally at 50, 150 and 300 mg/day, divided into 2 doses, for 5 days. Prednisolone (10 mg/day, orally) is used as a comparator.
(§3) Lesion scores and Actical™ measurement values are typically observed on the following days: • Pre-value: before challenge with fleas • the day of challenge with fleas (Actical™ measurements only); • D1: the day when the total lesion score reached a sufficiently high value (average lesion score 20) and treatment of the animal started. • D2 to D6,
(§4) In the treatment group, lesion scores were taken from 8 dogs. Actical™ measurements were also taken from 6 of these dogs.

[2] = system: dogs with flea allergic dermatitis; test: Skin lesion scores (total lesion score) in dogs with flea-allergic dermatitis; assay type: in vivo, Beagle dogs
Procedure: as §1
Skin observations: before flea infestations (D −1) all dogs are typically examined to establish a baseline score for erythema, papules, crusts, scales, alopecia, and excoriation. From D1, daily clinical observations are performed. Each lesion is typically graded using a scale from 0 to 3:
0=no signs 1=mild 2=moderate 3=severe
as §2
Erythema: is typically an acute clinical sign of cutaneous inflammation defined as redness of the skin caused by capillary congestion which can be aggravated by scratching. Excoriation: is typically a punctuate or linear abrasion produced by mechanical means, usually involving only the epidermis but not uncommonly reaching the papillary dermis. […] Papule: is typically a circumscribed, solid elevation with no visible fluid, varying in size from a pinhead to 1 cm. […], formed when there is a high break in the follicle wall. In the presence of bacteria, papules become pustules. Crusts: are typically dried serum, pus, or blood usually mixed with epithelial and sometimes bacterial debris. Scales: are dry or greasy laminated masses of keratin.
as §3, §4
• Erythema*, • Excoriations*, • Papules/pustules • Self induced alopecia^o, and • Scales, • Erythema and excoriations are related to pruritus • Self induced alopecia is also related to pruritus but the improvement is […] after several weeks of treatment.
Day 1 of treatment when dogs reached a sufficient lesion score to initiate treatment (average 20). Pre-values (baseline).

[3] = 50 mg/day orally in 2 doses, day 1 (treatment start)
[4] = 50 mg/day orally in 2 doses, day 2
[5] = 50 mg/day orally in 2 doses, day 3
[6] = 50 mg/day orally in 2 doses, day 4
[7] = 50 mg/day orally in 2 doses, day 5
[8] = 50 mg/day orally in 2 doses, day 6
[9] = 150 mg/day orally in 2 doses, day 1 (treatment start)
[10] = 150 mg/day orally in 2 doses, day 2
[11] = 150 mg/day orally in 2 doses, day 3
[12] = 150 mg/day orally in 2 doses, day 4
[13] = 150 mg/day orally in 2 doses, day 5
[14] = 150 mg/day orally in 2 doses, day 6
[15] = 300 mg/day orally in 2 doses, day 1 (treatment start)
[16] = 300 mg/day orally in 2 doses, day 2
[17] = 300 mg/day orally in 2 doses, day 3
[18] = 300 mg/day orally in 2 doses, day 4
[19] = 300 mg/day orally in 2 doses, day 5
[20] = 300 mg/day orally in 2 doses, day 6

CN(C(=O)c1cc(C(F)(F)F)cc(C(F)(F)F)c1)[C@@H](/C=C/C(=O)N[C@@H]1CCCCNC1=O)Cc1ccc(Cl)c(Cl)c1 [Test Compound, N-[(E)-(R)-1-(3,4-Dichloro-benzyl)-3-((R)-2-oxo-azepan-3-ylcarbamoyl)-allyl]-N-methyl-3,5-bis-trifluoromethyl-benzamide]
Control of pruritic activity (daytime) compared with Prednisolone ([1]; 150 mg and 50 mg, after 5 days of BID administrations): equipotent to the Prednisolone controls | Actical day, mean (standard deviation) [1, 3]: 88 (46) Average activity counts every 15 secs | Actical day, mean (standard deviation) [1, 4]: 64 (40) Average activity counts every 15 secs | Actical day, mean (standard deviation) [1, 5]: 72 (35) Average activity counts every 15 secs | Actical day, mean (standard deviation) [1, 6]: 67 (37) Average activity counts every 15 secs | Actical day, mean (standard deviation) [1, 7]: 62 (40) Average activity counts every 15 secs | Actical day, mean (standard deviation) [1, 8]: 48 (31) Average activity counts every 15 secs | Actical day, mean (standard deviation) ([1]; 50 mg/day orally in 2 doses, fleas (day of challenge)): 84 (47) Average activity counts every 15 secs | Actical day, mean (standard deviation) ([1]; 50 mg/day orally in 2 doses, pre (before exposure to fleas)): 46 (16) Average activity counts every 15 secs | Actical day, mean (standard deviation) [1, 9]: 58 (17) Average activity counts every 15 secs | Actical day, mean (standard deviation) [1, 10]: 48 (13) Average activity counts every 15 secs | Actical day, mean (standard deviation) [1, 11]: 53 (15) Average activity counts every 15 secs | Actical day, mean (standard deviation) [1, 12]: 44 (17) Average activity counts every 15 secs | Actical day, mean (standard deviation) [1, 13]: 60 (41) Average activity counts every 15 secs | Actical day, mean (standard deviation) [1, 14]: 40 (21) Average activity counts every 15 secs | Actical day, mean (standard deviation) ([1]; 150 mg/day orally in 2 doses, fleas (day of challenge)): 53 (16) Average activity counts every 15 secs | Actical day, mean (standard deviation) ([1]; 150 mg/day orally in 2 doses, pre (before exposure to fleas)): 31 (8) Average activity counts every 15 secs | Actical day, mean (standard deviation) [1, 15]: 114 (35) Average activity counts every 15 secs | Actical day, mean (standard deviation) [1, 16]: 116 (77) Average activity counts every 15 secs | Actical day, mean (standard deviation) [1, 17]: 99 (38) Average activity counts every 15 secs | Actical day, mean (standard deviation) [1, 18]: 107 (28) Average activity counts every 15 secs | Actical day, mean (standard deviation) [1, 19]: 129 (53) Average activity counts every 15 secs | Actical day, mean (standard deviation) [1, 20]: 79 (21) Average activity counts every 15 secs | Actical day, mean (standard deviation) ([1]; 300 mg/day orally in 2 doses, fleas (day of challenge)): 93 (37) Average activity counts every 15 secs | Actical day, mean (standard deviation) ([1]; 300 mg/day orally in 2 doses, pre (before exposure to fleas)): 58 (21) Average activity counts every 15 secs | Actical night, mean (standard deviation) ([1]; 50 mg/day orally in 2 doses, Fleas (day of challenge)): 6.8 (4.9) Average activity counts every 15 secs | Actical night, mean (standard deviation) ([1]; 50 mg/day orally in 2 doses, Pre (before exposure to fleas)): 5.2 (3.3) Average activity counts every 15 secs | Actical night, mean (standard deviation) [1, 3]: 22.1 (13.5) Average activity counts every 15 secs | Actical night, mean (standard deviation) [1, 4]: 13.2 (11.8) Average activity counts every 15 secs | Actical night, mean (standard deviation) [1, 5]: 11.5 (7.3) Average activity counts every 15 secs | Actical night, mean (standard deviation) [1, 6]: 12.6 (9.9) Average activity counts every 15 secs | Actical night, mean (standard deviation) [1, 7]: 9.8 (6.8) Average activity counts every 15 secs | Actical night, mean (standard deviation) [1, 8]: 9.9 (7.4) Average activity counts every 15 secs | Actical night, mean (standard deviation) ([1]; 150 mg/day orally in 2 doses, Fleas (day of challenge)): 6.2 (3.8) Average activity counts every 15 secs | Actical night, mean (standard deviation) ([1]; 150 mg/day orally in 2 doses, Pre (before exposure to fleas)): 4.2 (2.2) Average activity counts every 15 secs | Actical night, mean (standard deviation) [1, 9]: 14.6 (4.2) Average activity counts every 15 secs | Actical night, mean (standard deviation) [1, 10]: 10.7 (6.8) Average activity counts every 15 secs | Actical night, mean (standard deviation) [1, 11]: 10.6 (7.5) Average activity counts every 15 secs | Actical night, mean (standard deviation) [1, 12]: 9.4 (4.2) Average activity counts every 15 secs | Actical night, mean (standard deviation) [1, 13]: 10.4 (6.5) Average activity counts every 15 secs | Actical night, mean (standard deviation) [1, 14]: 11.2 (7.4) Average activity counts every 15 secs | Actical night, mean (standard deviation) ([1]; 300 mg/day orally in 2 doses, Fleas (day of challenge)): 6.8 (3.0) Average activity counts every 15 secs | Actical night, mean (standard deviation) ([1]; 300 mg/day orally in 2 doses, Pre (before exposure to fleas)): 7.0 (3.8) Average activity counts every 15 secs | Actical night, mean (standard deviation) [1, 15]: 24.6 (22.5) Average activity counts every 15 secs | Actical night, mean (standard deviation) [1, 16]: 11.9 (4.8) Average activity counts every 15 secs | Actical night, mean (standard deviation) [1, 17]: 16.8 (9.5) Average activity counts every 15 secs | Actical night, mean (standard deviation) [1, 18]: 20.7 (10.5) Average activity counts every 15 secs | Actical night, mean (standard deviation) [1, 19]: 16.2 (13.2) Average activity counts every 15 secs | Actical night, mean (standard deviation) [1, 20]: 13.3 (10.2) Average activity counts every 15 secs | Control of nighttime activity back to baseline ([1]; Test Compound doses, in particular 50 mg, BID): positive efficacy | Total score ctb (total lesion score compared to baseline), mean (standard deviation) [2, 4]: −3.7 (4.9) | Total score ctb (total lesion score compared to baseline), mean (standard deviation) [2, 5]: −2.8 (5.5) | Total score ctb (total lesion score compared to baseline), mean (standard deviation) [2, 6]: −1.9 (7.1) | Total score ctb (total lesion score compared to baseline), mean (standard deviation) [2, 7]: −2.8 (6.4) | Total score ctb (total lesion score compared to baseline), mean (standard deviation) [2, 8]: −8.7 (9.9) | Total score ctb (total lesion score compared to baseline), mean (standard deviation) [2, 10]: −2.3 (3.3) | Total score ctb (total lesion score compared to baseline), mean (standard deviation) [2, 11]: −3.9 (4.0) | Total score ctb (total lesion score compared to baseline), mean (standard deviation) [2, 12]: −6.4 (3.3) | Total score ctb (total lesion score compared to baseline), mean (standard deviation) [2, 13]: −5.0 (3.8) | Total score ctb (total lesion score compared to baseline), mean (standard deviation) [2, 14]: −8.8 (8.8) | Reduction of the lesion score (inhibition) compared with prednisolone ([2]; 300 mg, 150 mg, 50 mg): in the same range as the potent corticosteroid prednisolone | Total score ctb (total lesion score compared to baseline), mean (standard deviation) [2, 16]: −3.6 (9.1) | Total score ctb (total lesion score compared to baseline), mean (standard deviation) [2, 17]: −4.1 (6.4) | Total score ctb (total lesion score compared to baseline), mean (standard deviation) [2, 18]: −7.6 (8.4) | Total score ctb (total lesion score compared to baseline), mean (standard deviation) [2, 19]: −7.6 (9.7) | Total score ctb (total lesion score compared to baseline), mean (standard deviation) [2, 20]: −6.7 (8.1)
